According to patent US8455484B2, “Selected inhibitors of protein tyrosine kinase activity” (MethylGene Inc., priority 2010, dated 2013):

Tests used:
[1] = test system: CNV progression; assay: In vivo choroidal neovascularization (CNV) model; design: species or system Brown-Norway rats; conditions: injection into right eye on Day 3, CNV area on Day 10, vs vehicle-treated group
Excerpt: This test measures the capacity of compounds to inhibit CNV progression. CNV is the main cause of severe vision loss in patients suffering from age-related macular degeneration (AMD).
Male Brown-Norway rats (Japan Clea Co., Ltd.) were used in these studies.
Rats were anesthetized by intraperitoneal injection of pentobarbital, and the right pupil was dilated with 0.5% tropicamide and 0.5% phenylephrine hydrochloride. The right eye received 6 laser burns between retinal vessels using a slit lamp delivery system of Green laser Photocoagulator (Nidex Inc., Japan), and microscope slide glass with Heaton™ (AMO Inc) used as a contact lens. The laser power was 100 or 200 mW for 0.1 second and spot diameter was 100 μm. At the time of laser burn, bubble production was observed, which is an indication of rupture of Bruch's membrane which is important for CNV generation.
Rats were divided into the groups based on their body weight using SAS software (SAS institute Japan, R8.1) after laser irradiation (Day 0). After animals were anesthetized, and the right pupil dilated (as above mentioned), the right eye of the animal received the compound or vehicle by an injection (10 μL/eye) at doses of 10 or 3 nmol/eye on Day 3. The compounds were dissolved or suspended in CBS, PBS, or other adequate vehicles before injection.
On Day 10, the animals were anesthetized with ether, and high molecular weight fluorescein isothiocyanate (FITC)-dextran (SIGMA, 2×10^6 MW) was injected via a tail vein (20 mg/rat). About 30 min after FITC-dextran injection, animals were euthanized by ether or carbon dioxide, and the eyes were removed and fixed with 10% formaline neutral buffer solution. After over 1 hour of fixation, RPE-choroid-sclera flat mounts were obtained by removing cornea, lens and retina from the eyeballs. The flat mounts were mounted in 50% glycerol on a microscope slide, and the portion burned by laser was photographed using a fluorescence microscope (Nikon Corporation, excitation filter:465-495 nm, absorption filter:515-555 nm). The CNV area was obtained by measurement of hyper-fluorescence area observed on the photograph using Scion image.
The average CNV area of 6 burns was used as an individual value of CNV area, and the average CNV area of compound treated group was compared with that of the vehicle-treated group.

[2] = target: T1, VEGFR2 (KDR) (Homo sapiens, UniProt P35968); assay: In vitro receptor tyrosine kinase assay (VEGF receptor KDR), DELFIA; format: biochemical; conditions: recombinant GST-VEGFR2 catalytic domain, ATP 0.6 uM, enzyme 5 nM; read-out: VEGFR IC50
T1 construct: made in house; host or cells: Sf9 cells (Spodoptera frugiperda), baculovirus
Excerpt: This test measures the ability of compounds to inhibit the enzymatic activity of recombinant human VEGF receptor enzymatic activity.
A 1.6-kb cDNA corresponding to the catalytic domain of VEGFR2 (KDR) (Genbank accession number AF035121 amino acid 806 to 1356) is cloned into the Pst I site of the pDEST20 Gateway vector (Invitrogen) for the production of a GST-tagged version of that enzyme. This constuct is used to generate recombinant baculovirus using the Bac-to-Bac™ system according to the manucfacturer's instructions (Invitrogen).
The GST-VEGFR2806-1356 protein is expressed in Sf9 cells (Spodoptera frugiperda) upon infection with recombinant baculovirus construct. Briefly, Sf9 cells grown in suspension and maintained in serum-free medium (Sf900 II supplemented with gentamycin) at a cell density of about 2×10^6 cells/ml are infected with the above-mentioned viruses at a multiplicity of infection (MOI) of 0.1 during 72 hours at 27° C. with agitation at 120 rpm on a rotary shaker. Infected cells are harvested by centrifugation at 398 g for 15 min. Cell pellets are frozen at −80° C. until purification is performed.
All steps described in cell extraction and purification are performed at 4° C. Frozen Sf9 cell pellets infected with the GST-VEGFR2806-1356 recombinant baculovirus are thawed and gently resuspended in Buffer A (PBS pH 7.3 supplemented with 1 μg/ml pepstatin, 2 μg/ml Aprotinin and leupeptin, 50 μg/ml PMSF, 50 μg/ml TLCK and 10 μM E64 and 0.5 mM DTT) using 3 ml of buffer per gram of cells. Suspension is Dounce homogenized and 1% Triton X-100 is added to the homogenate after which it is centrifuged at 22500 g, 30 min., 4° C. The supernatant (cell extract) is used as starting material for purification of GST-VEGFR2806-1356.
The supernatant is loaded onto a GST-agarose column (Sigma) equilibrated with PBS pH 7.3. Following a four column volume (CV) wash with PBS pH 7.3+1% Triton X-100 and 4 CV wash with buffer B (50 mM Tris pH 8.0, 20% glycerol and 100 mM NaCl), bound proteins are step eluted with 5 CV of buffer B supplemented with 5 mM DTT and 15 mM glutathion. GST-VEGFR2806-1356 enriched fractions from this chromatography step are pooled based on U.V. trace i.e. fractions with high O.D.280. Final GST-VEGFR2806-1356 protein preparations concentrations are about 0.7 mg/ml with purity approximating 70%. Purified GST-VEGFR2806-1356 protein stocks are aliquoted and frozen at −80° C. prior to use in enzymatic assay.
Inhibition of VEGFR/KDR is measured in a DELFIA™ assay (Perkin Elmer). The substrate poly(Glu4, Tyr) is immobilized onto black high-binding polystyrene 96-well plates. The coated plates are washed and stored at 4° C. During the assay, the enzyme is pre-incubated with inhibitor and Mg-ATP on ice in polypropylene 96-well plates for 4 minutes, and then transferred to the coated plates. The subsequent kinase reaction takes place at 30° C. for 10-30 minutes. ATP concentrations in the assay are 0.6 uM for VEGFR/KDR (2× the Km). Enzyme concentration is 5 nM. After incubation, the kinase reactions are quenched with EDTA and the plates are washed. Phosphorylated product is detected by incubation with Europium-labeled anti-phosphotyrosine MoAb. After washing the plates, bound MoAb is detected by time-resolved fluorescence in a Gemini SpectraMax reader (Molecular Devices). Compounds are evaluated over a range of concentrations, and IC50 values (concentration of compounds giving 50% inhibition of enzymatic activity) are determined.

[3] = test system: VEGF-induced retinal vascular permeability; assay: VEGF-induced retinal vascular permeability in rabbits; format: in vivo, Dutch rabbits; conditions: intravitreal injection, human VEGF165 500 ng, 30 min after fluorescein injection, vs vehicle-treated group
Description: This test measured the capacity of compounds to inhibit VEGF-induced retinal vascular permeability. Vascular permeability is the cause of severe vision loss in patients suffering from age-related macular degeneration (AMD). Female Dutch rabbits (˜2 kg; Kitayama LABES CO., LTD, Nagano, Japan) were anesthetized with pentobarbital and topically with 0.4% oxybuprocaine hydrochloride. Test articles or vehicle were injected into vitreous cavity after the dilation of the pupils with 0.5% tropicamide eye drop. Recombinant human VEGF165 (500 ng; Sigma-Aldrich Co., St Louis, Mo.) was injected intravitreously 48 hr prior to the measurement of vitreous fluorescein concentration. Rabbits were anesthetized with pentobarbital and sequentially injected sodium fluorescein (2 mg/kg) via the ear vein. Pupils were dilated with 0.5% tropicamide eye drop, and ocular fluorescein levels were measured using the FM-2 Fluorotron Master (Ocumetrics, Mountain View, Calif.) 30 min after fluorescein injection. The fluorescein concentrations in vitreous were obtained at data points that are 0.25 mm apart from posterior-end along an optical axis. Vitreous fluorescence concentration was considered fluorescein leakage from retinal vasculature. The average fluorescence peaks of the test article treated groups were compared with that of the vehicle-treated group.

T1 sequence (P35968 806-1356): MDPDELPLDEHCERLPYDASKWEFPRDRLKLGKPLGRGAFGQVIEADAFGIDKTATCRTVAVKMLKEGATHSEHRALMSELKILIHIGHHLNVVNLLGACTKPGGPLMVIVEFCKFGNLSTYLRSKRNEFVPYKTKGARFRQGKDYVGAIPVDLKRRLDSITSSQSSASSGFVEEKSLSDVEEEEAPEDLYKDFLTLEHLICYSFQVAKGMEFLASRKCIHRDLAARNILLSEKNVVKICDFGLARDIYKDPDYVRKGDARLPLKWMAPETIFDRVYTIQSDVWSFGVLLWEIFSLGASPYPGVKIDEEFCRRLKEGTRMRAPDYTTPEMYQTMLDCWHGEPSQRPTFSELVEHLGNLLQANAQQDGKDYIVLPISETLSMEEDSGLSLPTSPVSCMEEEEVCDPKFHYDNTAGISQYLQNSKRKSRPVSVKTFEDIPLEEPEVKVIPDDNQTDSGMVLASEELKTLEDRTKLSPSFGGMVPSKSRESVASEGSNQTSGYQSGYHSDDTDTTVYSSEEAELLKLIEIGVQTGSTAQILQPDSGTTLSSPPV

| Compound | IC50 [2] [nM] | Inhibition of CNV progression ([1]; 3 nmol/eye) | Inhibition of CNV progression ([1]; 10 nmol/eye) | inhibition of the leakage of fluorescein (vitreous fluorescein concentration) [3] |
| --- | --- | --- | --- | --- |
| 1-((2-(7-(4-Isopropylaminocarbonylamino-2-fluorophenoxy)thieno[3,2-b]pyrid methyl-1H-imidazol-5-yl)methyl)-3-isopropyl-1-(2-methoxyethyl)urea [Compound 192] | 50 to 100 | B (≧40% to <60% inhibition) | – | – |
| CS(=O)(=O)CCNCc1ccc(-c2cc3nccc(Oc4ccc(NC(=O)NC5CC5)cc4F)c3s2)nc1 [Compound 100, 1-cyclopropyl-3-(3-fluoro-4-(2-(5-((2-(methylsulfonyl)ethylamino)methyl)pyridin-2-yl)thieno[3,2-b]pyridin-7-yloxy)phenyl)urea] | < 50 | – | – | – |
| CN(CCO)CCn1cc(-c2cc3nccc(Oc4ccc(NC(=O)NC5CC5)cc4F)c3s2)cn1 [Compound 151, 1-cyclopropyl-3-(3-fluoro-4-(2-(1-(2-((2-hydroxyethyl)(methyl)amino)ethyl)-1H-pyrazol-4-yl)thieno[3,2-b]pyridin-7-yloxy)phenyl)urea] | < 50 | – | – | – |
| COCCN(Cc1cnc(-c2cc3nccc(Oc4ccc(NC(=O)NC5CC5)cc4F)c3s2)n1C)C(=O)CO [Compound 209, N-((2-(7-(4-(3-cyclopropylureido)-2-fluorophenoxy)thieno[3,2-b]pyridin-2-yl)-1-methyl-1H-imidazol-5-yl)methyl)-2-hydroxy-N-(2-methoxyethyl)acetamide] | < 50 | – | – | – |
| CN1CCN(C2CCN(C(=O)c3ccc(-c4cc5nccc(Oc6ccc(NC(=O)NC7CC7)cc6F)c5s4)nc3)CC2)CC1 [Compound 234, 1-Cyclopropyl-3-(3-fluoro-4-(2-(5-(4-(4-methylpiperazin-1-yl)piperidine-1-carbonyl)pyridin-2-yl)thieno[3,2-b]pyridin-7-yloxy)phenyl)urea] | < 50 | B (≧40% to <60% inhibition) | – | – |
| O=C(Nc1ccc(Oc2ccnc3cc(-c4cn(CCN5CCOCC5)cn4)sc23)c(F)c1)NC1CC1 [Compound 265] | < 50 | – | – | – |

Second part, led by results:

| IC50 [2] [nM] | Compound | Inhibition of CNV progression ([1]; 3 nmol/eye) | Inhibition of CNV progression ([1]; 10 nmol/eye) | inhibition of the leakage of fluorescein (vitreous fluorescein concentration) [3] |
| --- | --- | --- | --- | --- |
| < 50 | CCNC(=O)N(CCOC)Cc1ccc(-c2cc3nccc(Oc4ccc(NC(=O)NC5CC5)cc4F)c3s2)nc1 [Compound 2, N-[3-((6-(7-(4-(3-cyclopropylureido)-2-fluorophenoxy)thieno[3,2-b]pyridin-2-yl)pyridin-3-yl)methyl)]-N-(1-ethyl)-N-[3-(2-methoxyethyl)]urea] | B (≧40% to <60% inhibition) | A (greater than or equal to 60% inhibition) | – |
| < 50 | COCCN(C=O)Cc1ccc(-c2cc3nccc(Oc4ccc(NC(=O)NC5CC5)cc4F)c3s2)nc1 [Compound 6, N-((6-(7-(4-(3-cyclopropylureido)-2-fluorophenoxy)thieno[3,2-b]pyridin-2-yl)pyridin-3-yl)methyl)-N-(2-methoxyethyl)formamide] | B (≧40% to <60% inhibition) | A (greater than or equal to 60% inhibition) | – |
| < 50 | COCCN(Cc1ccc(-c2cc3nccc(Oc4ccc(NC(=O)NC5CC5)c(F)c4F)c3s2)nc1)C(C)=O [Compound 26, N-((6-(7-(4-(3-cyclopropylureido)-2,3-difluorophenoxy)thieno[3,2-b]pyridin-2-yl)-pyridin-3-yl)methyl)-N-(2-methoxyethyl)acetamide] | B (≧40% to <60% inhibition) | A (greater than or equal to 60% inhibition) | significant inhibition |
| < 50 | O=C(Nc1ccc(Oc2ccnc3cc(-c4ccc(CN5CCN(C(=O)CO)CC5)cn4)sc23)c(F)c1)NC1CC1 [Compound 74, 1-cyclopropyl-3-(3-fluoro-4-(2-(5-((4-(2-hydroxyacetyl)piperazin-1-yl)methyl)pyridin-2-yl)thieno[3,2-b]pyridin-7-yloxy)phenyl)urea] | A (greater than or equal to 60% inhibition) | A (greater than or equal to 60% inhibition) | significant inhibition |
| < 50 | CC(C)[C@H](N)C(=O)OCC(=O)N1CCN(Cc2ccc(-c3cc4nccc(Oc5ccc(NC(=O)NC6CC6)cc5F)c4s3)nc2)CC1 [Compound 80, (S)-2-(4-((6-(7-(4-(3-cyclopropylureido)-2-fluorophenoxy)thieno[3,2-b]pyridin-2-yl)pyridin-3-yl)methyl)piperazin-1-yl)-2-oxoethyl 2-amino-3-methylbutanoate] | – | – | – |
